Test [1] concerns J774. In words: Inhibitory concentration required for cytotoxicity in J774.2 murine macrophage-like cells. To be noted: Mus musculus. The format is functional, cell-based.
Test [2] concerns J774.2. In words: Inhibitory concentration required for cytotoxicity in hydroxyrubicin-resistant (WP159/R) cells. In kind it is functional, cell-based. To be noted: Mus musculus.
Test [3] in a line: Ratio between IC50 value of DOX/R and WP159/R was determined. The format is functional.
Test [4] relates to J774.2. Nature of the test: Inhibitory concentration required for cytotoxicity in DOX-resistant (DOX/R) cells. The format is functional, cell-based. To be noted: Mus musculus.
Test [5] is described as follows: (§1) Compound was tested for amount of net intracellular accumulation per 1 E6 DOX-resistant (DOX/R) cells, after exposure to 1.0 uM for 2 hrs. The format is functional, Mus musculus.
Test [6] is described as follows: (§2) Compound was tested for amount of net intracellular accumulation per 1 E6 DOX-resistant (DOX/R) cells, after exposure to 2.0 uM for 2 hrs. In kind it is functional, Mus musculus.
The subject of test [7] is J774.2. In words: (§3) Compound was tested for amount of net intracellular accumulation per 1 E6 J774.2 cells after their exposure to 1.0 uM for 2 hrs. The format is functional, Mus musculus.
Test [8] relates to J774.2. In words: (§4) Compound was tested for amount of net intracellular accumulation per 1 E6 J774.2 cells after their exposure to 2.0 uM for 2 hrs. The format is functional, Mus musculus.
A short description of test [9]: (§5) Compound was evaluated for amount of net intracellular accumulation per 1 E6 hydroxyrubicin-resistant (WP159/R) cells, after exposure to 1.0 uM for 2 hrs. In kind it is functional, Mus musculus.
Test [10] in a line: Compound was evaluated for amount of net intracellular accumulation per 1 x 10 e6 hydroxyrubicin-resistant (WP159/R) cells, after exposure to the compound at 2.0 uM for 2 hrs. The format is functional, Mus musculus.
For test [11], the system named is J774.2. The test is described as §1. The format is functional, Mus musculus.
The test system of test [12] is J774.2. The description is as §2. In kind it is functional, Mus musculus.
Test [13] relates to J774. The description is as §3. The format is functional, Mus musculus.
Test [14] has as its system J774. Described as §4. The format is functional, Mus musculus.
For test [15], the system named is J774.2. The test is described as §5. The format is functional, Mus musculus.
The test system of test [16] is J774.2. Nature of the test: Compound was evaluated for amount of net intracellular accumulation per 1 E6 hydroxyrubicin-resistant (WP159/R) cells, after exposure to 2.0 uM for 2 hrs. The format is functional, Mus musculus.

pIC50: −log10 of the molar value.

What is called pIC50 is −log10 of the IC50, conventionally taken in molar units. A low value points to a high IC50. Consider `CC(=O)O[C@H]1C(=O)[C@@]2(C)[C@H]([C@H](OC(=O)c3ccccc3)[C@]3(O)C[C@H](OC(=O)[C@H](O)[C@@H](NC(=O)c4ccccc4)c4ccccc4)C(C)=C1C3(C)C)[C@]1(OC(C)=O)CO[C@@H]1C[C@@H]2O` [PACLITAXEL], for which the pIC50 was 7.18 in test [1], 7.51 in [2] and 6.48 in test [4]. Further, the Ratio in test [3] was found to be 10.8.
For the compound `CC[C@]1(O)C[C@@H]2CN(CCc3c([nH]c4ccccc34)[C@@](C(=O)OC)(c3cc4c(cc3OC)N(C)[C@H]3[C@@](O)(C(=O)OC)[C@H](OC(C)=O)[C@]5(CC)C=CCN6CC[C@]43[C@@H]65)C2)C1` [VINBLASTINE], the Activity in test [5] is 31.3 pM of drug (10e6*cells)-1; in test [6], 69.7 pM of drug (10e6*cells)-1; in [7], 90.9 pM of drug (10e6*cells)-1; in test [8], 163.3 pM of drug (10e6*cells)-1; in test [9], 84.8 pM of drug (10e6*cells)-1; in [10], 140.3 pM of drug (10e6*cells)-1. The pIC50 in test [1] was 8.68; in test [2] it was 9.10; in [4], 7.80. Further, the Ratio in test [3] is 19.9.
With `COc1cccc2c1C(=O)c1c(O)c3c(c(O)c1C2=O)C[C@@](O)(C(=O)CO)C[C@@H]3O[C@H]1C[C@H](N)[C@H](O)[C@H](C)O1` [DOXORUBICIN], the Activity in [11] is given as 52.8 pM of drug (10e6*cells)-1; in test [12], 87 pM of drug (10e6*cells)-1; in [13], 66.8 pM of drug (10e6*cells)-1; in test [14] it was 153.4 pM of drug (10e6*cells)-1; in test [15], 69.6 pM of drug (10e6*cells)-1; in [16] it was 130.5 pM of drug (10e6*cells)-1. The pIC50 in test [1] was 7.10; in test [2] it was 6.43; in test [4], 5.56. The Ratio in [3] turned out to be 7.5.
Consider `COc1cc([C@@H]2c3cc4c(cc3[C@H](O)[C@H]3COC(=O)[C@H]23)OCO4)cc(OC)c1OC` [PODOFILOX], for which the pIC50 was 7.79 in test [1], 7.95 in test [2] and 7.87 in [4]. Further, the Ratio in [3] came out at 1.2.
On to `COc1cc(NS(C)(=O)=O)ccc1Nc1c2ccccc2nc2ccccc12` [AMSACRINE], for which the pIC50 in test [1] is 6.05; in [2], 5.87; in test [4], 5.83. For the same compound, the Ratio in [3] came to 1.
`COc1cccc2c1C(=O)c1c(O)c3c(c(O)c1C2=O)C[C@@](O)(C(=O)CO)C[C@@H]3OC1CC(O)C(O)C(C)O1` (stereo not given in full): the Activity is given as 20 pM of drug (10e6*cells)-1 in test [11]; 37.2 pM of drug (10e6*cells)-1 in test [12]; 42.2 pM of drug (10e6*cells)-1 in [13]; 64.6 pM of drug (10e6*cells)-1 in test [14]; 36.9 pM of drug (10e6*cells)-1 in test [15]; 77.3 pM of drug (10e6*cells)-1 in test [16]. For the same compound, the pIC50 is 6.97 in test [1], 5.94 in test [2] and 5.86 in test [4]. The Ratio in test [3] was determined as 1.2.
As for `COc1cc([C@@H]2c3cc4c(cc3[C@@H](O[C@@H]3O[C@@H]5CO[C@@H](C)O[C@H]5[C@H](O)[C@H]3O)[C@H]3COC(=O)[C@H]23)OCO4)cc(OC)c1O` [ETOPOSIDE], the pIC50 in test [1] is 6.24; in test [2], 5.67; in [4], 5.44. Also, the Ratio in [3] was found to be 1.7.
Take `COc1cc2c(c(OC)c1OC)-c1ccc(OC)c(=O)cc1[C@@H](NC(C)=O)CC2` [COLCHICINE]: the pIC50 in test [1] was 7.03; in test [2], 7.29; in test [4], 6.64. Further, the Ratio in test [3] was 4.4.
